Assay results published in PMC5024129, “Adipokinetic hormones and their G protein-coupled receptors emerged in Lophotrochozoa” (Scientific Reports, 2016).
Square brackets hold non-standard residues; d marks the D form. Ends that are not written are not given here. Peptide text beside a SMILES is read from it. pGlu = O=C1CC[C@@H](C(=O)O)N1

Columns and labels:
C. gigas AKHR2 = test: Bioluminescence assay in CHO/G-16 cells expressing C. gigas AKHR2; type: cell-based, Crassostrea gigas
Description: (§1) This receptor, therefore, remains an orphan. CHO cells stably expressing the human G-protein 16 (CHO/G16) were maintained in DMEM/F-12 + GlutaMAX^TM (Life Technologies) medium with 200 μg/ml hygromycin B (Invitrogen), 5% fetal calf serum (FCS) (Life Technologies), 1% (v/v) glutaMAX (Life Technologies), 100 U/ml penicillin(Life Technologies), and 100 μg/ml streptomycin (Life Technologies). To express the AKH receptor, 5 × 10^4 CHO/G16 cells were transfected with 3 μg pIRES vector containing the AKH receptor insert using JetPEI® transfection reagent (Polyplus), while 3 μg empty pIRES vector was used as a control. All tested peptides were from Genemed Synthesis, Inc. and initially dissolved in demethylformamide (DMF) followed by dilution in PBS. The purities of the peptides and peptide contents were determined by HPCL and mass spectrometry as supplied by Genemed Synthesis. The bioluminescence assay was performed as described earlier[9][30] using a Victor2 1420 Multilabel Counter (Perkin Elmer).

C. gigas AKHR1-C = test: Bioluminescence assay in CHO/G-16 cells expressing C. gigas AKHR1 splice variant C; type: cell-based, Crassostrea gigas
From the text: (§2) We stably expressed all four cloned splice variants from C. gigas AKHR1 (Fig. 2) in Chinese Hamster Ovary (CHO) cells. These cells were also stably transfected with the promiscuous G protein, G-16, and transiently transfected with apoaequorin. An activation of the receptor by its ligand in these pretreated CHO cells would result in an IP3/Ca^2+ second messenger cascade, which could be measured as a bioluminescence signal.
as §1, with “CHO” for “This receptor, therefore, remains an orphan. CHO”, “PBS.” for “PBS. The purities of the peptides and peptide contents were determined by HPCL and mass spectrometry as supplied by Genemed Synthesis. The bioluminescence assay was performed as described earlier[9][30] using a Victor2 1420 Multilabel Counter (Perkin Elmer).”

C. gigas AKHR1-A = C. gigas AKHR1-A (Magallana gigas, UniProt B1VCT5); test: Bioluminescence assay in CHO/G-16 cells stably expressing C. gigas AKHR1-A (apoaequorin, IP3/Ca2+ cascade); type: cell-based, Crassostrea gigas; settings: 10^−6 M peptide, CHO/G-16/AKHR1-A cells, Fig. 5A, n = 3
From the text: as §2
as §1, with “CHO” for “This receptor, therefore, remains an orphan. CHO”, “PBS.” for “PBS. The purities of the peptides and peptide contents were determined by HPCL and mass spectrometry as supplied by Genemed Synthesis. The bioluminescence assay was performed as described earlier[9][30] using a Victor2 1420 Multilabel Counter (Perkin Elmer).”

C. gigas AKHR1-D = test: Bioluminescence assay in CHO/G-16 cells expressing C. gigas AKHR1 splice variant D; type: cell-based, Crassostrea gigas
From the text: as §2
as §1, with “CHO” for “This receptor, therefore, remains an orphan. CHO”, “PBS.” for “PBS. The purities of the peptides and peptide contents were determined by HPCL and mass spectrometry as supplied by Genemed Synthesis. The bioluminescence assay was performed as described earlier[9][30] using a Victor2 1420 Multilabel Counter (Perkin Elmer).”

Aplysia californica = settings: injection into the slug; cited from earlier work
From the text: Johnson et al.[34] have recently shown that an AKH is present in the sea slug Aplysia californica. […] These findings are difficult to reconcile with our above considerations, but our own considerations are, of course, only hypothetical.

C. gigas AKHR1-A, sequence (B1VCT5 entry or part of it): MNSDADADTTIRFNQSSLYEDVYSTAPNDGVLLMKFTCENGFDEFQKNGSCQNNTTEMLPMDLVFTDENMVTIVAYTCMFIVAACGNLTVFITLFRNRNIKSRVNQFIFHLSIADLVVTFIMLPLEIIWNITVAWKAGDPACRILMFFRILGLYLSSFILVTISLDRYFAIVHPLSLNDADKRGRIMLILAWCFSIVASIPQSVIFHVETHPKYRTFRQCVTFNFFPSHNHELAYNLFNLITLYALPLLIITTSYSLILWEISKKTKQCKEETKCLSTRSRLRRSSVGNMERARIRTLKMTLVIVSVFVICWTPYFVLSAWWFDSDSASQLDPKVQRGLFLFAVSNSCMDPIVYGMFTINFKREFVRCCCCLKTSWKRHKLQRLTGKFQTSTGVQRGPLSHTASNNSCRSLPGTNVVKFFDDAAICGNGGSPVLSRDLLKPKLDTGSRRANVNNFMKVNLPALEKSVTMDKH

Molecule | Activation of AKHR2 (C. gigas AKHR2) | Activation of AKHR1 splice variant C (C. gigas AKHR1-C) | Bioluminescence response (activation) of AKHR1-A (C. gigas AKHR1-A) | Activation of AKHR1 splice variant D (C. gigas AKHR1-D) | Effect on defecation (Aplysia californica) | Effect on feeding (Aplysia californica) | Influence on hemolymph glucose concentrations (Aplysia californica)
CC(C)[C@H](NC(=O)[C@@H]1CCC(=O)N1)C(=O)N[C@@H](CO)C(=O)N[C@@H](Cc1ccccc1)C(=O)N[C@@H](CO)C(=O)N[C@H](C(=O)N[C@@H](CC(N)=O)C(=O)N[C@@H](Cc1c[nH]c2ccccc12)C(=O)NCC(=O)N[C@@H](CO)C(N)=O)[C@@H](C)O [C. gigas AKH] ([pGlu]VSFSTNWGS-NH2) | could not be activated | could not be activated | can be activated | could not be activated | – | – | –
Dm-CCAP: D. melanogaster crustacean cardioactive peptide (PFCNAFTGC; ends and bridges not checked; cysteine pairing not given here; UniProt Q9VCW0 52-60, looked up) | – | – | not active | – | – | – | –
pQIHFSPDWGTamide [Aplysia californica AKH, molluscan true AKH of the sea slug] | – | – | – | – | induce defecation | reduce feeding | no influence
